Test results as given in ChEMBL document CHEMBL6177944, “Derivatization of ophiobolin A and cytotoxicity toward breast and glioblastoma cancer stem cells: Varying the ketone and unsaturated aldehyde moieties” (Bioorg Med Chem Lett, 2025).
Calls of active or inactive are those of the source. No cut-off for these calls is given here.

Key:
[1] = test system: HMLE; test: (§1) Cytotoxicity against HMLE cells expressing Twist EMT+; type: functional, cell-based; conditions: Homo sapiens
[2] = Cytotoxicity against HMLE cells assessed as reduction in cell viability at 1 uM relative to control; type: toxicity, cell-based; conditions: human
[3] = as §1; type: functional, cell-based; conditions: Homo sapiens
[4] = Cytotoxicity against HMLE cells; type: toxicity, cell-based; conditions: human
[5] = test system: MCF7; test: Cytotoxicity against human MCF7 cells; type: functional, cell-based
[6] = test system: MDA-MB-231; test: Cytotoxicity against human MDA-MB-231 cells; type: functional, cell-based
[7] = test system: T98G; test: Cytotoxicity against human T98G cells; type: functional, cell-based
[8] = Cytotoxicity against human GBM43 cells; type: functional, cell-based; conditions: GBM43 cell
[9] = Selectivity index, ratio of IC50 for cytotoxicity against human MCF7 cells to IC50 for cytotoxicity against human MDA-MB-231 cells; type: cell-based
[10] = Selectivity index, ratio of IC50 for cytotoxicity against HMLE cells to IC50 for cytotoxicity against human HMLE cells expressing Twist EMT+; type: toxicity, cell-based; conditions: HMLE cells and HMLE cells expressing Twist (EMT+), read-out: Ratio IC50
[11] = Selectivity index, ratio of IC50 for cytotoxicity against human T98G cells to IC50 for cytotoxicity against human GBM43 cells; type: functional

| SMILES | Activity [1] | Activity [2] [%] | IC50 [3] [µM] | IC50 [4] [µM] | IC50 [5] [µM] | IC50 [6] [µM] | IC50 [7] [µM] | IC50 [8] [µM] | Ratio IC50 [9] | selectivity ratio [10] | Ratio IC50 [11] |
| --- | --- | --- | --- | --- | --- | --- | --- | --- | --- | --- | --- |
| COc1cccc2c1C(=O)c1c(O)c3c(c(O)c1C2=O)C[C@@](O)(C(=O)CO)C[C@@H]3O[C@H]1C[C@H](N)[C@H](O)[C@H](C)O1 [DOXORUBICIN] | inactive | < 50 |  |  |  |  |  |  |  |  |  |
| CC(C)=C[C@H]1C[C@H](C)[C@]2(CC[C@]3(C)C[C@H]4[C@H]5[C@@H](CC[C@H]32)[C@H](O)O[C@H]5C[C@@]4(C)O)O1 |  |  | 123 | 58.1 | 149 | 136 | 444 | 363 | ~ 1.1 | ~0.47 | ~1.2 |
| CC1(C)CC/C=C(/C=O)[C@H]2C(=O)C[C@@](C)(O)[C@H]2C1 |  |  |  |  |  |  | 859 | 106 |  |  | ~8 |
| CC(C)=C[C@H]1C[C@H](C)[C@]2(CC[C@]3(C)C[C@H]4[C@H]5/C(=C\C[C@H]32)CO[C@@]5(O)C[C@@]4(C)O)O1 |  |  | 8.84 | 25.9 | 107 | 128 |  |  | ~ 0.84 | ~2.9 |  |
| CC(C)=C[C@H]1C[C@H](C)[C@]2(CC[C@]3(C)C[C@H]4[C@H]5/C(=C\C[C@H]32)C(O)O[C@H]5C[C@@]4(C)O)O1 (stereo partly specified) |  |  | 22.5 | 50.2 | 39.6 | 157 |  |  | ~ 0.25 | ~2.2 |  |
| CC(C)=C[C@H]1C[C@H](C)[C@]2(CC[C@]3(C)C[C@@H]4C(C)=CC(=O)[C@@H]4/C(CO)=C\C[C@H]32)O1 |  |  |  |  |  |  | 298 | 24 |  |  | ~12 |
| CC(C)=C[C@H]1C[C@H](C)[C@]2(CC[C@]3(C)C[C@H]4[C@@H](/C(CO)=C\C[C@H]32)[C@@H](O)C[C@@]4(C)O)O1 |  |  | 134 | 140 | 387 | 384 | > 1000 | > 1000 | ~ 1 | ~1 |  |
| CC(C)=C[C@H]1C[C@H](C)[C@]2(CC[C@]3(C)C[C@H]4[C@H]5/C(=C\C[C@H]32)C(=O)O[C@H]5C[C@@]4(C)O)O1 [OPHIOBOLIN A LACTONE] |  |  | 63.6 | 91 | 232 | 313 | 102 | 8.6 | ~ 0.74 | ~1.4 | ~12 |
| CC(C)=C[C@H]1C[C@H](C)[C@]2(CC[C@]3(C)C[C@H]4[C@H](C(=O)C[C@@]4(C)O)/C(C=O)=C\C[C@H]32)O1 [OPHIOBOLIN A] |  |  | 0.029 | 0.063 |  |  | 1.9 |  |  | ~2.1 | ~9 |
